The source of these data is PMC3390202 (Biochemistry, 2011).

For this experiment, the target named is rhodopsin (N2C,D282C and N2C,E113Q,D282C mutants) (Bos taurus, UniProt P02699, N2C/E113Q/D282C). Description: UV-visible absorption. To be noted: covalent; in the dark; inverse agonist chromophore; DDM, Hepes pH 7.5. The format is binding.

Consider `CC1=C(/C=C/C(C)=C/C=C\C(C)=C\C=O)C(C)(C)CCC1` [11-cis-retinal], for which the “UV-visible absorption; 1D4-Sepharose copurification with transducin” value was “Binding of 11-cis-retinal forces the protein into the inactive state”.
